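1) Cells in 96-well plates. 2) Compound, 48 h, 5 concentrations. 3) Linear interpolation between surrounding doses. 4) Unreached endpoint = highest concentration. At the GI50, growth is halved.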 The source made the active and inactive calls. Rule as the data show it: active = GI50 up to about 1.1 µM and inactive = higher.

Common to all, as to test: NCI-60 cell line screen, 48 h
Test [1] has as its system SNB-78.
Test [2] relates to DMS-273.
Test [3] concerns XF498.
For test [4], the system named is KM-20L2.
The subject of test [5] is DMS-114.
Test [6] relates to RXF 631.
The test system of test [7] is HOP-18.
Test [8] relates to DLD-1.
The subject of test [9] is Hs-578T.

In the case of `CC(=O)Nc1ccccc1Sc1ccccc1`, the GI50 in [1], in [2], in test [3], in [4], in [5] and in test [6] was > 100 µM (inactive) each time. Moreover, the GI50 in test [7] is > 100 µM (inactive).

On to `CC(=O)OC1=CC2(OC(C)=O)CC(C)(C)C1C1C(=O)C=CC(=O)C12` (centres undefined), for which the GI50 in [1], in test [8], in [2], in test [3], in test [4] and in test [5] was > 100 µM (inactive) each time. For the same compound, in test [6], the GI50 was > 100 µM (inactive).

On to `CC1(Br)CC2OC3(Br)C=CC(C)(O)C2(CC1=O)C3(C)C` (centres undefined), for which the GI50 is > 100 µM (inactive) in test [1]; 98.2 µM (inactive) in test [8]; > 100 µM (inactive) in [2]; > 90.4 µM (inactive) in test [3]; > 100 µM (inactive) in test [4]; > 100 µM (inactive) in test [5]. For the same compound, the GI50 in test [7] is > 100 µM (inactive).

`Cc1nc2ccccc2c(=O)n1/N=C(\N=N\c1cc(Cl)ccc1Cl)c1ccccc1`: the GI50 in [8] was 45.6 µM (inactive); in test [2] it was 43.3 µM (inactive); in test [9] it was 74 µM (inactive); in [3], 61.2 µM (inactive); in [4] it was 0.412 µM (active); in test [5] it was 30.2 µM (inactive). For the same compound, the GI50 in test [6] is > 10 µM (inactive); in [7] it was 14.3 µM (inactive).

As to `O=C1O[C@@H](c2ccccc2)C[C@H]1CN1CCOCC1`, the GI50 in test [1] was > 100 µM (inactive); in test [8], > 100 µM (inactive); in [3], 81.8 µM (inactive); in [4], > 100 µM (inactive); in [5], 67 µM (inactive); in test [6] it was > 100 µM (inactive).

In the case of `CC(C)C(=O)Nc1nc2c(ncn2C2OC(CO)C(O)C2O)c(=O)[nH]1` (centres undefined), the GI50 in test [1] was > 100 µM (inactive); in test [8], > 100 µM (inactive); in test [2], > 100 µM (inactive); in test [3], > 100 µM (inactive); in [4], > 100 µM (inactive); in test [5] it was 67.1 µM (inactive). The GI50 in test [6] and in test [7] was > 100 µM (inactive) in each case.

As to `C/C(=C\C(=O)Nc1ccc2[nH]nnc2c1)Nc1ccc2[nH]nnc2c1`, the GI50 in [1], in test [8], in [4], in [5], in test [6] and in test [7] was > 100 µM (inactive) throughout.

`CCOC(=O)C1(C(=O)OCC)OC(=O)NC2=C1CCCC2`: the GI50 in test [1], in test [8], in test [2], in test [3], in test [4] and in test [5] was > 100 µM (inactive) throughout. Besides, the GI50 in [7] was 19.5 µM (inactive).

As for `CN(C)c1ccc2nc3c(ccc4ccccc43)[o+]c2c1`, the GI50 was 14.6 µM (inactive) in [1]; 5.51 µM (inactive) in test [8]; 17.9 µM (inactive) in test [2]; 14.4 µM (inactive) in test [3]; 13.8 µM (inactive) in test [4]; 19.3 µM (inactive) in test [5]. Further, the GI50 in test [6] is 7.91 µM (inactive); in [7], 10.1 µM (inactive).

On to `O=[N+]([O-])c1nccn1CC(O)c1ccc(F)cc1` (centres undefined), for which the GI50 in [2], in [3], in test [4], in test [5], in test [6] and in [7] was > 100 µM (inactive) each time.

`CC(C)(O)[C@@H]1CCC(C)([C@H]2[C@@H](O)CC3(C)C4CC(OC5OC(CO)C(O)C(O)C5O)C5C(C)(C)[C@@H](OC6OCC(O)C(O)C6O)CC[C@@]56C[C@@]46CC[C@]23C)O1` (some centres undefined): the GI50 in test [1], in [8], in test [2], in test [3], in [4] and in [5] was > 100 µM (inactive) each time. The GI50 in [7] was > 100 µM (inactive).

With `Cn1c(=O)nc2n(-c3cccc(Br)c3)c3ccccc3nc-2c1=O`, the GI50 in test [1] is 12.2 µM (inactive); in [8], 5.41 µM (inactive); in test [2] it was 3.1 µM (inactive); in test [3], 5.36 µM (inactive); in test [4] it was 2.43 µM (inactive); in test [5] it was 2.04 µM (inactive). In addition, in [7], the GI50 is 5.9 µM (inactive).

In the case of `CCN(CC)CCNc1ccc2nnn3c4ccc(OC)cc4c(=O)c1c23`, the GI50 was 10.7 µM (inactive) in test [1]; 5.05 µM (inactive) in [8]; 5.27 µM (inactive) in test [4]; 8.89 µM (inactive) in test [5]; 3.83 µM (inactive) in test [6]; 0.507 µM (active) in test [7].

Take `O=NN(CCCl)C(=O)NCCCl` [CARMUSTINE]: the GI50 in test [1] was 88.9 µM (inactive); in test [8] it was 76.6 µM (inactive); in test [2], 74 µM (inactive); in test [9], 103 µM (inactive); in test [3] it was 68.1 µM (inactive); in [4], 94 µM (inactive). Further, the figures for the GI50 in test [5], in test [6] and in test [7] were 61.5 µM (inactive), 80.2 µM (inactive) and 91.4 µM (inactive), respectively.
